Assay results: US10563272B2, “Compositions comprising Metarhizium fungi and use thereof as a pesticide” (Cotton Research and Development Corporation, priority 2015, dated 2020)

Legend:
[1] = test system: green mirid adults and nymphs; assay: Bollgard II cotton, Auscott-Togo 2012-13, Field 77 (Experiment 1): green mirids; type: in vivo, Creontiades dilutus; conditions: 62.5 mL/ha
Procedure: (§1) Two separate trials (Experiment 1 in Field 77; Experiment 2 in Field 63) were conducted in Bollgard II cotton crops on a commercial cotton farm at Auscott-Togo near Narrabri, New South Wales from 11 Feb. to 5 Mar. 2013 (Field 77) and 19 Feb. to 6 Mar. 2013 (Field 63). The cotton used for each of the trials was at the late squaring to pod setting and maturation stages which was fairly attractive to green mirids.
(§2) In both trials, the efficacy of the following treatments against green mirids and predatory insects was evaluated: • 1. 250 mL/ha DAT 511 spore in oil (1×10^7 spores/ml); • 2. 500 mL/ha DAT 511 spore in oil (1×10^7 spores/ml); • 3. 1 L/ha DAT 511 spore in oil (1×10^7 spores/ml); • 4. 62.5 mL/ha of fipronil; and • 5. Unsprayed (negative control).
(§3) The treatment plots were arranged in a randomized complete block design with six replicates per treatment. Each replicated plot measured 40 m wide (40 rows) and 90 m long.
(§4) Foliar application of each treatment was made on 28 Feb. (for both green mirids and beneficial insects) and 13 Mar. 2012 (for beneficial insects alone) using a ground spray rig fitted with flat fan nozzles to achieve a droplet size of 200 μm. The treatment was applied during the mornings when temperatures were between 20° C. and 28° C. The timing of treatment was based on the IPM Guidelines and recommendations by CottonLogic to use an economic threshold of 0.5 green mirids per metre (Deutscher and Wilson 1999; Khan et al. 2004).
(§5) Pre-treatment counts of green mirid adults and nymphs, predatory beetles, predatory bugs, predatory lacewings and spiders were made by visual inspection of whole cotton plants. Both adults and nymphs of beneficial insects were counted. Plants were assessed in randomly selected one-metre lengths of row of each replicate (i.e. 6 m per treatment). Post-treatment counts were made 3, 7, 14 and 21 days after treatment. Data are expressed as numbers of green mirid adults and nymphs counted per metre for each treatment.

spiders = assay: Bollgard II cotton, Auscott-Togo 2012-13, Field 77 (Experiment 1): spiders; type: in vivo, Lycosa spp., Oxyopes spp., Salticidae spp., Araneus spp.; conditions: 62.5 mL/ha
Procedure: as §1, §2, §3, §4, §5

predatory lacewings = assay: Bollgard II cotton, Auscott-Togo 2012-13, Field 77 (Experiment 1): predatory lacewings; type: in vivo, Chrysopa spp., Micromus tasmaniae; conditions: 62.5 mL/ha
Procedure: as §1, §2, §3, §4, §5

predatory bugs = assay: Rate trial on conventional cotton refuge crops, Undabri 2012 (Example 12): predatory bugs; type: in vivo, Hemiptera (Nabidae, Lygaeidae, Pentatomidae); conditions: DAT 511 500 mL and 1.0 L/ha (P<0.001 versus 250 mL/ha and unsprayed); fipronil 62.5 mL/ha
Procedure: (§6) This trial was conducted using commercial conventional cotton refuge crops at Undabri in Goondiwindi (28° 55'S, 150° 31′E) from 14 Feb. to 6 Mar. 2012.
as §2, with “The” for “In both trials, the”, “mirids, green vegetable bugs” for “mirids”, “assessed:” for “evaluated:”, “mL/ha” for “mL/ha of”
(§7) The plots were arranged in a randomized complete block design with three replicates per treatment. Each replicated plot measured 8 m (8 rows) wide and 250 m long.
(§8) Foliar applications of each treatment were made on 14 Feb. 2012 using a ground spray rig fitted with flat fan nozzles to achieve a droplet size of 200 μm. All insecticide formulations were water miscible. All treatments were applied using a spray volume of 100 L/ha. The untreated (negative control) plot was left unsprayed and the plot treated with synthetic insecticide received two applications similar to, and on the same date as, the plots treated with the fungus.
(§9) For each replicate, visual counts of adults and nymphs of green mirids, green vegetable bugs (GVB), apple dimpling bugs and predatory insects on whole cotton plants were made in a randomly selected 1 m length of row of cotton plants (i.e. 6 m per treatment). […]

green mirids [2] = assay: Rate trial on conventional cotton, ACRI 2011-12 (Example 9): green mirids; type: in vivo, Creontiades dilutus
Procedure: This trial was conducted in an irrigated field of commercial conventional cotton at the Australian Cotton Research Institute (ACRI) farm in Narrabri, NSW, during the 2011-2012 season. The treatments in this trial were as follows: • 1. 250 mL/ha DAT 511; • 2. 500 mL/ha DAT 511; and • 3. 1 L/ha DAT 511.
Results were compared with data from unsprayed conventional cotton crops (negative control) and conventional cotton crops treated with 62.5 mL/ha of fipronil. The population of apple dimpling bugs at the study site was higher than GVB and green mirids, and remained so throughout the season. Therefore the trials were treated and assessed from 8 Jan. to 12 Feb. 2012 for green mirids, 26 Feb. 2012 for GVB and 4 Mar. 2012 for apple dimpling bugs. The treatment plots were arranged in a randomized complete block design with eight replicates per treatment. Each replicated plot measured 16 m (16 rows) wide and 250 m long.
Foliar applications of each treatment were made on 8 Jan. 22 Jan. and 5 Feb. 2012. The decision to apply the treatment was based on the IPM Guidelines and the CottonLogic recommended economic threshold of 0.5 green mirids per metre. Pre-treatment counts were made by visual counting of the numbers of green mirid, green vegetable bug and apple dimpling bug adults and nymphs, as well as predatory beetles, predatory bugs, predatory lacewings and spiders on cotton plants in each treatment. Post-treatment counts were made following the first spray at 7 and 14 DAT, following the second spray at 7 DAT for green mirids and GVB, and up to 28 DAT for the third spray for apple dimpling bugs. All counts were done on a randomly selected one-metre length of row of each treatment replicate (i.e. total of 8 m). Data were expressed as numbers per metre and numbers per metre per sampling date for each treatment.

green mirids [3] = assay: Rate trial on conventional cotton refuge crops, Undabri 2012 (Example 12): green mirids; type: in vivo, Creontiades dilutus; conditions: adults P<0.03, nymphs P<0.001
Procedure: as §6
as §2, with “The” for “In both trials, the”, “mirids, green vegetable bugs” for “mirids”, “assessed:” for “evaluated:”, “mL/ha” for “mL/ha of”
as §7, §8, §9

In the case of `N#Cc1nn(-c2c(Cl)cc(C(F)(F)F)cc2Cl)c(N)c1[S+]([O-])C(F)(F)F` (centres unmarked) [fipronil], the “No. green mirid adults and nymphs per meter” value ([1]; 3 DAT) is reported as 1.33 ± 0.33 a per meter, the “No. green mirid adults and nymphs per meter” value ([1]; 7 DAT) is reported as 0.00 ± 0.00 b per meter and the “No. green mirid adults and nymphs per meter” value ([1]; 14 DAT) is reported as 0.00 ± 0.00 a per meter. For the same compound, the “No. green mirid adults and nymphs per meter” value ([1]; 21 DAT) was 0.00 ± 0.00 a per meter, the “No. green mirid adults and nymphs per meter” value ([1]; pre-spray counts) was 4.33 ± 0.67 a per meter and the “No. spiders per meter” value (spiders; 3 DAT) was 5.00 ± 1.73 a per meter. The “No. spiders per meter” value (spiders; 7 DAT) was 5.33 ± 1.86 a per meter, the “No. spiders per meter” value (spiders; 14 DAT) was 9.33 ± 0.67a per meter and the “No. spiders per meter” value (spiders; 21 DAT) was 8.67 ± 0.88 a per meter. For the same compound, the “No. spiders per meter” value (spiders; pre-spray counts) was 11.67 ± 1.67a per meter, the “No. predatory lacewings per meter” value (predatory lacewings; 3 DAT) was 0.00 ± 0.00 a per meter and the “No. predatory lacewings per meter” value (predatory lacewings; 7 DAT) was 0.00 ± 0.00 a per meter. The “No. predatory lacewings per meter” value (predatory lacewings; 14 DAT) was 0.33 ± 0.33 a per meter, the “No. predatory lacewings per meter” value (predatory lacewings; 21 DAT) was 0.33 ± 0.33 a per meter and the “No. predatory lacewings per meter” value (predatory lacewings; pre-spray counts) was 0.00 ± 0.00 a per meter. For the same compound, the “effect on number of predatory bugs per metre” value (predatory bugs) was “significantly lower”, the “adult mirids found on treated plots” value (green mirids [2]; at the second spray application) was “no adult mirids were found” and the “adult and nymph green mirids versus unsprayed (control) plots” value (green mirids [2]; different rates of DAT 511, fipronil 62.5 mL/ha, P<0.0001) was “Significantly fewer”. The “mirid nymphs found on treated plots” value (green mirids [2]; seven days after second spray, DAT 511 500 mL and 1.0 L/ha, fipronil) was “no mirid nymphs were found” and the “green mirid adults and nymphs per metre versus unsprayed plots” value (green mirids [3]) was “Significantly fewer”.
